Columns and labels:
Format in all cases: cell-based
A549 cells [1] = assay: Time course of cell cycle distribution of A549 cells incubated with VX-680; conditions: A549, 200 nM VX-680, after 48 h
Experimental: After 48 h, more than 35% of cells were arrested in tetraploid G2/M (8N) (FIG. 2a). […] Together, the results confirmed that the 8N cells were arrested predominantly in G2 and VX-680 inhibited mitosis in part through a G2 checkpoint.

A549 cells [2] = assay: Mitotic index of A549 cells exposed to VX-680; conditions: A549, VX-680 200 nM
Experimental: (B) is a graph showing the Mitotic index of A549 cells exposed to VX-680. A549 cells were incubated with VX-680 (200 nM) and the mitotic cells were counted and expressed as a percentage of total cells count. To aid visualization of the condensed chromosomes, H2B-GFP was expressed in A549. Each data point represents the mean±SD (n=3).

[3] = test system: Cdk/cyclin kinase activities (Cdk2, cdc2, cyclins A2 and B1) in A549 cells; assay: Cdk/cyclin kinase activities after incubation with VX-680 (immunoprecipitation, histone H1 kinase assay); conditions: A549, VX-680 time course
Experimental: (b) is a series of western blots showing the kinetics of Kinetics of Cdk/cyclin kinase activities after incubation with VX-680. Cdk/cyclin kinase activities were assayed in vitro (refer to Materials and Methods in Examples). Cdk2, cyclins A and B1 were immunoprecipitated from cell lysates using specific antibodies followed by in vitro kinase assays using histone H1 as a substrate. Suc1 is used to capture Cdk1 and Cdk2 complexes by protein pull down as described in Materials and Methods. […]
The immunoprecipitated beads were resuspended in 5 μl of EB buffer, 10 mM DTT and 20 to […]. […] After electrophoresis on 12.5% polyacrylamide gels, phosphorylation was analyzed by autoradiography and quantified by phosphorimage analysis.

[4] = test system: cyclins A2 and B1 in A549 cells; assay: Western blot of cell cycle-related proteins after VX-680 treatment; conditions: A549, VX-680 time course
Experimental: (c) is a series of western blots showing the comparison of expression levels of cell cycle-related proteins (Rb, cdc2, Cdk2, cyclin A2, cyclin E1 and cyclin B1) and p53-dependent gene products (MDM2 and p21) at the indicated time points after VX-680 treatment. Downregulation of mitotic cyclins A and B and upregulation of p53-dependent genes p21 and MDM2 correlate with the activation of p53.
(§1) For western blotting, cell extracts were prepared using NP-40 lysis buffer (50 mM Tris-HCl (pH 8.0), 150 mM NaCl, 1% NP-40, 5 mM EDTA supplemented with protease and phosphatase inhibitor cocktails (Sigma).

[5] = test system: cyclins A2 and B1 mRNAs in wild-type HCT116 cells; assay: qRT-PCR of transcript levels in HCT116 cells treated with VX-680; conditions: VX-680-treated wild-type HCT116 (not in p53−/− or p21−/− cells)
Experimental: It is noteworthy that cyclins A2 and B1 levels remained high in p53−/− and p21−/− cells even after cells were incubated with VX-680 for 48 h, in contrast to that observed in the wild-type cells.
Total RNA was isolated using the RNeasy kit (Qiagen, Valencia, Calif., USA). The RNA was quantified using spectrophotometric analysis and used for quantitative real-time PCR. The primers used for each target analyzed are available on request. The RNA Master Power SYBR Green Mix (Roche) was used for quantification of mRNA levels.

HCT116 p53−/− cells = assay: Cell cycle analysis of HCT116 p53−/− cells (nutlin-3, VX-680); conditions: 200 nM VX-680, later time points (40 and 48 h), compared with p53+/+
Experimental: (a) is a comparison of the DNA profiles of P53+/+ and p53−/− cells after treatment with VX-680. HCT116 p53+/+ and p53−/− cells were incubated with 200 nM VX-680 and cells were harvested at the indicated time points for analysis of cell cycle distribution.
(b) is a comparison of the DNA profiles of p53+/+ and p53−/− cells with pre-treatment of Nutlin before incubation with VX-680.

ATM = ATM / DNA damage checkpoint dependence of VX-680-induced G2 arrest (western blot, DNA FACS profiles)
Experimental: as §1

A375 and HCT116 p53+/+ = assay: Annexin V apoptosis assay, p53-positive cell lines; conditions: various concentrations of VX-680
Experimental: Cells were then harvested and stained for annexin V to detect apoptotic cells.
For analysis of apoptosis, cells were harvested without fixation. Apoptosis was evaluated using the annexin V (fluorescein isothiocyanate (FITC))-propidium iodide binding assay (Roche, Indianapolis, Ind., USA). The extent of apoptosis was quantified as a percentage of annexin V-positive cells over the total cell population. Flow cytometric analysis was performed on a BD LSR II System (BD Biosciences, Stockholm, Sweden). Data were analyzed using FlowJo software and ModFit LT (Verity Software House, Topsham, Me., USA).

A549 cells [6] = assay: Micronuclei formation and γH2AX staining (immunofluorescence microscopy) in A549 cells
Experimental: Cells were fixed and stained for γH2AX (green) as described in Materials and Methods in the Examples. Nuclei were counterstained with DAPI blue. Visualization of nuclei and γH2AX positive foci was done by fluorescence microscopy.
Indirect immunofluorescence was carried out as described previously.^14 g-H2AX (Novus Biologicals, Littleton, Colo., USA, NB 100-383) and anti-rabbit Alexa 488-coupled secondary antibody (Molecular Probes, Carlsbad, Calif., USA) were used. Nuclei were counterstained with Hoechst 33342 (Molecular Probes). Immunofluorescence was visualized using Axiolmager Z1 (Zeiss, Gottingen, Germany).

Cc1cc(Nc2cc(N3CCN(C)CC3)nc(Sc3ccc(NC(=O)C4CC4)cc3)n2)[nH]n1 [VX-680, cyclopropane carboxylic acid of {4-[4-(4-methyl-piperazin-1-yl)-6-(5-methyl-2H-pyrazol-3-ylamino)-pyrimidin-2-ylsulphanyl]-phenyl}-amide]
cells arrested in tetraploid G2/M (8N) (A549 cells [1]): more than 35% | time at which the mitotic index peaked (A549 cells [2]; after treatment): 16 h | mitotic index (A549 cells [2]; at 48 h): 2% | Cdk2 and cdc2 kinase activities [3]: markedly reduced to undetectable levels | cyclins A2- and B1-associated kinase activities [3]: rapid reduction | protein levels of cyclins A2 and B1 [4]: timedependent decrease | cyclins A2 and B1 mRNAs [5]: greatly reduced | endoreduplication (HCT116 p53−/− cells): Increased endoreduplication | p53 phosphorylation on Ser15 (ATM; VX-680-treated cells): without detectable phosphorylation on Ser15 | activation of ATM (Ser1981 phosphorylation) (ATM; low concentrations of VX-680): did not induce activation of ATM | apoptosis (annexin V) (A375 and HCT116 p53+/+): underwent apoptosis | cells containing at least 1 micronucleus per nucleus (A549 cells [6]; A549, VX-680 48 h): More than 70% | γH2AX staining in the micronuclei (A549 cells [6]; A549, VX-680-treated): increased

— patent US20130344140A1, “NOVEL PHARMACEUTICAL COMBINATIONS AND METHODS FOR TREATING CANCER” (Agency for Science, Technology and Research, priority 2011, published 2013)
